Results published in patent US8173699B2, “Compounds for the treatment of inflammatory diseases” (Boehringer Ingelheim International GmbH, priority 2005, dated 2012).
Structures can show the parent of a compound that is named as a salt.

SMILES	melting point
CN(C)C(=O)CN(c1cccc(N/C(=C2\C(=O)Oc3ccccc32)c2ccc(CN)c(F)c2)c1)S(C)(=O)=O (as salt: HCl) [Example 101]	253 to 254 °C
CN1C(=O)/C(=C(\Nc2ccc(-c3cn(C)cn3)cc2)c2ccc(CN)cc2)c2ccccc21 [Example 36, 3-{(4-aminomethylphenyl)-[4-(1-methyl-1H-imidazol-4-yl)phenylamino]methylene}-1-methyl-1,3-dihydroindol-2-one]	214 to 217 °C
Cc1nc(-c2ccc(N/C(=C3\C(=O)Oc4ccccc43)c3ccc(CN)c(F)c3)cc2)cs1 [Example 102]	196 to 197 °C
